Experimental findings from publication PMC11402452, “Etomoxir-carnitine, a novel pharmaco-metabolite of etomoxir, inhibits phospholipases A2 and mitochondrial respiration” (Journal of Lipid Research, 2024) are described below.

In general, IC50 refers to the concentration at which inhibition is half-maximal.

The target in the assay is T1, calcium-independent phospholipase A2γ (iPLA2γ) (Homo sapiens, UniProt Q9NP80).
T1 construct: gene PNPLA8; 63 kDa recombinant human peroxisomal isoform, N-terminal (His)6 tag
T1 sequence (Q9NP80 221-782 limits assumed): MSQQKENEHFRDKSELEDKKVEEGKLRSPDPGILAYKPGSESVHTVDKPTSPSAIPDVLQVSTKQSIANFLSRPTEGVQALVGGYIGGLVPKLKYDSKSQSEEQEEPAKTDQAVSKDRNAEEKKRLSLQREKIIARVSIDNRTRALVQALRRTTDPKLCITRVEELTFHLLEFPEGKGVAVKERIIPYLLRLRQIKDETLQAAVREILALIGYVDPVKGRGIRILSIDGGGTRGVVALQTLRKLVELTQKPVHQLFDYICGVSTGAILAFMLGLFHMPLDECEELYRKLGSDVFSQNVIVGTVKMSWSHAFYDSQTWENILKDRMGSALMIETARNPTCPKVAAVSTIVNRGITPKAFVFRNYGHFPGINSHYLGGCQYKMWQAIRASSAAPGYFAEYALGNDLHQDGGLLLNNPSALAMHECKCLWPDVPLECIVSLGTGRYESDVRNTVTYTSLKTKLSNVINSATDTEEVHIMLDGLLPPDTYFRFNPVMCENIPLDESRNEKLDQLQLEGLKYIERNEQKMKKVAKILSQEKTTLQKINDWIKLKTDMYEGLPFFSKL
Put plainly: purified recombinant PLA2 activity assay (PAPC/diolein SUVs), LPC production by ESI-MS. The assay is classed as biochemical.

As for `C[N+](C)(C)C[C@@H](CC(=O)O)OC(=O)[C@@]1(CCCCCCOc2ccc(Cl)cc2)CO1` [ETO-carnitine, (R)-3-carboxy-2-(((R)-2-(6-(4-chlorophenoxy)hexyl)oxirane-2-carbonyl)oxy)-N,N,N-trimethylpropan-1-aminium], the IC50 was roughly 1.75 nM.
